Source: patent publication US8969325B2, “TRPV1 antagonists” (AbbVie Inc., priority 2011, dated 2015)

Experiments:
human TRPV1 [1] = target: T1, human TRPV1 (Homo sapiens (Human), UniProt Q8NER1); assay: Acid Activation Assay (pH 5.0, intracellular Ca2+, FLIPR); format: cell-based; details: percentage of the maximal pH 5.0-induced response remaining; recombinant HEK293 hTRPV1 cells; maximum concentration tested 37.5 μM
Procedure, shortened: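 HEK293 cells stably expressing recombinant hTRPV1, loaded with Calcium-4 dye 90-120 min at 25° C. Compounds added over a 12-point half-log range (top 37.5 μM), then pH 5.0 DPBS/MES challenge after 3 min; FLIPR peak fluorescence over baseline given as % of maximal pH 5.0 response.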

human TRPV1 [2] = target: T1, human TRPV1; assay: Capsaicin Activation Assay (intracellular Ca2+, FLIPR); format: cell-based; details: recombinant HEK293 cells expressing hTRPV1, 50 nM capsaicin
Procedure, shortened: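 Stably transfected HEK293 cells expressing human TRPV1 cDNA, plated the day before in poly-D-lysine plates. Compounds serially diluted from 10 mM DMSO stocks; intracellular Ca2+ fluorescence read on FLIPR at 1 to 5 second intervals.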

rats [3] = assay: Sodium iodoacetate-induced knee joint osteoarthritic pain model (hind limb grip force); format: in vivo; details: rat, po, single acute dose, 1 hour after administration, 20 days after sodium iodoacetate, read-out: % effect (% return to normalcy of hind limb grip force)
Protocol: Unilateral knee joint osteoarthritis was induced in the rats by a single intra-articular (i.a.) injection of sodium iodoacetate (3 mg in 0.05 mL sterile isotonic saline) into the right knee joint cavity under light isoflurane anesthesia using a 26 G needle. […] Pain behavioral assessment of hind limb grip force was conducted by recording the maximum compressive force exerted on the hind limb strain gauge setup, in a commercially available grip force measurement system (Columbus Instruments, Columbus, Ohio). The grip force data was converted to a maximum hindlimb cumulative compressive force (CFmax) (gram force)/kg body weight for each animal. The analgesic effects of test compounds were determined 20 days following the i.a. injection of sodium iodoacetate. The vehicle control group for each compound being tested was assigned 0% whereas the age matched naïve group was assigned as being 100% (normal). The % effect for each dose group was then expressed as % return to normalcy compared to the naïve group. Test compounds were administered orally in 10% ethanol/20% Tween 80/70% polyethylene glycol-400 vehicle at a volume of 2 mL/kg. The assessment of the analgesic effects of test compounds was made 1 hour following oral administration. The assessment of the analgesic effects of test compounds can be made following a single dose or following repeated administration wherein the frequency of dosing is 1 to 2 times daily. The duration of such repeated daily dosing may last for any time greater than one day. A typical duration of repeated daily dosing is about 5 days to about 12 days.

rats [4] = assay: Rat acute capsaicin-induced flinching behavior; format: in vivo; details: 1 h, oral dose given as 100 nmol/kg, capsaicin 2.5 μg into hind paw one hour after compound, five minute observation, relative to control-treated animals, read-out: % effect (percent reduction in the number of flinching behaviors)
Protocol: Rats were placed in individual observation cages. Following an acclimation period of 30 minutes, selected compounds were administered orally at a dose of 100 nmol/kg in a vehicle (10% ethanol/20% Tween 80/70% polyethylene glycol-400) at a volume of 2 mL/kg. One hour after administration of the compound, 2.5 μg of capsaicin in a 10 μL solution of 10% ethanol/90% hydroxypropyl-β-cyclodextrin was injected subcutaneously into the dorsal aspect of the right hind paw. The observation cage was then suspended above mirrors in order to facilitate observation. […] The number of flinching behaviors of the injured paw was recorded during the five minute observation period (Gilchrist, H. D.; Allard, B. L.; Simone, D. A.; Enhanced withdrawal responses to heat and mechanical stimuli following intraplantar injection of capsaicin in rats. Pain, 1996, 67, 179-188). The percent reduction in the number of flinching behaviors produced from oral administration of the test compounds relative to control-treated animals (% effect) is reported in Table 2.

T1 sequence (Q8NER1 whole entry): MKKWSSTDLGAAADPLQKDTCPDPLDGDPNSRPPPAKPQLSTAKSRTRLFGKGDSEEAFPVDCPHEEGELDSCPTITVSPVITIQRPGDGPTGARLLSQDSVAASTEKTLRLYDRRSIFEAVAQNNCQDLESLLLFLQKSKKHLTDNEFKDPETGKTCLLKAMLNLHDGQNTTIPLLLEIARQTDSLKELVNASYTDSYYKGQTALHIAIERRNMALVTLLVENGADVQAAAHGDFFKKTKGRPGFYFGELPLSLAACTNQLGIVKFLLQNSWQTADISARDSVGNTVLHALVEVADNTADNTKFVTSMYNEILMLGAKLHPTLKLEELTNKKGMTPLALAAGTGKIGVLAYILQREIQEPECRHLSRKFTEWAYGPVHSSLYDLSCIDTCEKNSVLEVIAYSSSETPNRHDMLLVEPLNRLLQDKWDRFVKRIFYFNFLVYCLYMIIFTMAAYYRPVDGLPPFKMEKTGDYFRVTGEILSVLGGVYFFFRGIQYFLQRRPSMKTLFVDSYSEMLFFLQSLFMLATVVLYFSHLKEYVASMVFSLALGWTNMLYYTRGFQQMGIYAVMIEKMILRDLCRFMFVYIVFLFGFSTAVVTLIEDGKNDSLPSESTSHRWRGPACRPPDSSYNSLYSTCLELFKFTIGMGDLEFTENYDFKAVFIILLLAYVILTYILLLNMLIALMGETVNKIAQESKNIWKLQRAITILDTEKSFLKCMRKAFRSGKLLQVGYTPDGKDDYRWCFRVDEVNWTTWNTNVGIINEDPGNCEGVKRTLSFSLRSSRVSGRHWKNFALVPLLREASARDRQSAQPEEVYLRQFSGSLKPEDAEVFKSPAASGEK

human TRPV1 H^+ (max % remain) (human TRPV1 [1]) [%]	IC50 (human TRPV1 [2]) [nM]	Structure (SMILES)	inhibition in vivo at 10 mg/kg (rats [3]) [%]	inhibition in vivo at 0.1 µmol/kg (rats [4]) [%]	inhibition in vivo at 12 mg/kg (rats [3]; 12 mg/kg) [%]	inhibition in vivo at 14 mg/kg (rats [3]; 14 mg/kg) [%]
34	7	C[C@]1(C(F)(F)F)C[C@@H](NC(=O)Nc2ccc3c(c2)NC(=O)CC3)c2ccccc2O1 [Example 34, 1-[(2R,4R)-2-methyl-2-(trifluoromethyl)-3,4-dihydro-2H-chromen-4-yl]-3-(2-oxo-1,2,3,4-tetrahydroquinolin-7-yl)urea]	46	–	–	–
37	36	CC1(C)C[C@@H](NC(=O)Nc2ccc3c(c2)NC(=O)CC3)c2ccc(C(F)(F)F)cc2O1 [Example 32, 1-[(4R)-2,2-dimethyl-7-(trifluoromethyl)-3,4-dihydro-2H-chromen-4-yl]-3-(2-oxo-1,2,3,4-tetrahydroquinolin-7-yl)urea]	22	–	–	–
54	70	CN1Cc2ccc(NC(=O)N[C@@H]3CCc4cc(Cl)ccc43)cc2NC1=O [Example 17, 1-[(1R)-5-chloro-2,3-dihydro-1H-inden-1-yl]-3-(3-methyl-2-oxo-1,2,3,4-tetrahydroquinazolin-7-yl)urea]	–	83	–	–
36	–	O=C1CCc2ccc(NC(=O)N[C@@H]3CC(CF)(CF)Oc4cc(Cl)ccc43)cc2N1 [Example 31, 1-[(4R)-7-chloro-2,2-bis(fluoromethyl)-3,4-dihydro-2H-chromen-4-yl]-3-(2-oxo-1,2,3,4-tetrahydroquinolin-7-yl)urea]	24	–	–	–
96	19	O=C1COc2ccc(NC(=O)N[C@@H]3CC(CF)(CF)Oc4cc(C(F)(F)F)ccc43)cc2N1 [Example 324, 1-[(4R)-2,2-bis(fluoromethyl)-7-(trifluoromethyl)-3,4-dihydro-2H-chromen-4-yl]-3-(3-oxo-3,4-dihydro-2H-1,4-benzoxazin-6-yl)urea]	67	–	–	–
26	78	O=C1CCc2ccc(NC(=O)N[C@@H]3CCc4cc(Cl)ccc43)cc2N1 [Example 251, 1-[(1R)-5-chloro-2,3-dihydro-1H-inden-1-yl]-3-(2-oxo-1,2,3,4-tetrahydroquinolin-7-yl)urea]	38	–	–	–
87	21	C[C@]1(C(F)F)C[C@@H](NC(=O)Nc2ccc3c(c2)NC(=O)CO3)c2ccc(Cl)cc2O1 [Example 321, 1-[(2R,4R)-7-chloro-2-(difluoromethyl)-2-methyl-3,4-dihydro-2H-chromen-4-yl]-3-(3-oxo-3,4-dihydro-2H-1,4-benzoxazin-6-yl)urea]	31	–	–	–
30	32	CCC1(CC)C[C@@H](NC(=O)Nc2ccc3c(c2)NC(=O)CC3)c2cccc(F)c2O1 [Example 222, 1-[(4R)-2,2-diethyl-8-fluoro-3,4-dihydro-2H-chromen-4-yl]-3-(2-oxo-1,2,3,4-tetrahydroquinolin-7-yl)urea]	26	–	–	–
41	53	CN1C(=O)NCc2c(NC(=O)N[C@@H]3C[C@@](C)(C(F)F)Oc4ccccc43)cccc21 [Example 13, 1-[(2S,4R)-2-(difluoromethyl)-2-methyl-3,4-dihydro-2H-chromen-4-yl]-3-(1-methyl-2-oxo-1,2,3,4-tetrahydroquinazolin-5-yl)urea]	–	–	63	–
38	–	Cn1c(=O)ccc2c(NC(=O)N[C@@H]3CC(C)(C)Oc4cc(F)ccc43)cccc21 [Example 19, 1-[(4R)-7-fluoro-2,2-dimethyl-3,4-dihydro-2H-chromen-4-yl]-3-(1-methyl-2-oxo-1,2-dihydroquinolin-5-yl)urea]	–	90	–	–
38	4	O=C1CCc2ccc(NC(=O)N[C@@H]3CCc4cc(C(F)(F)F)ccc43)cc2N1 [Example 35, 1-(2-oxo-1,2,3,4-tetrahydroquinolin-7-yl)-3-[(1R)-5-(trifluoromethyl)-2,3-dihydro-1H-inden-1-yl]urea]	42	–	–	–
34	14	CC1(C)C[C@@H](NC(=O)Nc2ccc3c(c2)NC(=O)CC3)c2ccc(Cl)c(F)c2O1 [Example 39, 1-[(4R)-7-chloro-8-fluoro-2,2-dimethyl-3,4-dihydro-2H-chromen-4-yl]-3-(2-oxo-1,2,3,4-tetrahydroquinolin-7-yl)urea]	50	–	–	–
21	36	CN1C(=O)NCc2c(NC(=O)N[C@@H]3CC(CF)(CF)Oc4cc(Cl)ccc43)cccc21 [Example 2, 1-[(4R)-7-chloro-2,2-bis(fluoromethyl)-3,4-dihydro-2H-chromen-4-yl]-3-(1-methyl-2-oxo-1,2,3,4-tetrahydroquinazolin-5-yl)urea]	–	–	–	36
100	67	C[C@@]1(CF)C[C@@H](NC(=O)Nc2ccc3c(c2)NC(=O)CO3)c2ccc(C(F)(F)F)cc2O1 [Example 127, 1-[(2S,4R)-2-(fluoromethyl)-2-methyl-7-(trifluoromethyl)-3,4-dihydro-2H-chromen-4-yl]-3-(3-oxo-3,4-dihydro-2H-1,4-benzoxazin-6-yl)urea]	–	–	–	–
79	460	CCC1(CC)C[C@@H](NC(=O)Nc2ccc3c(c2)NC(=O)CO3)c2ccc(Cl)c(Cl)c2O1 [Example 105, 1-[(4R)-7,8-dichloro-2,2-diethyl-3,4-dihydro-2H-chromen-4-yl]-3-(3-oxo-3,4-dihydro-2H-1,4-benzoxazin-6-yl)urea]	–	–	–	–
21	600	CN1C(=O)NCc2c(NC(=O)N[C@@H]3CCOc4cc(F)ccc43)cccc21 [Example 159, 1-[(4R)-7-fluoro-3,4-dihydro-2H-chromen-4-yl]-3-(1-methyl-2-oxo-1,2,3,4-tetrahydroquinazolin-5-yl)urea]	–	–	–	–
39	53	Cn1c(=O)ccc2c(NC(=O)N[C@@H]3CC(C)(C)Oc4c3ccc(F)c4F)cccc21 [Example 81, 1-[(4R)-7,8-difluoro-2,2-dimethyl-3,4-dihydro-2H-chromen-4-yl]-3-(1-methyl-2-oxo-1,2-dihydroquinolin-5-yl)urea]	–	–	–	–
53	19	Cn1c(=O)ccc2c(NC(=O)N[C@@H]3CC(C)(C)Oc4c(F)cccc43)cccc21 [Example 94, 1-[(4R)-8-fluoro-2,2-dimethyl-3,4-dihydro-2H-chromen-4-yl]-3-(1-methyl-2-oxo-1,2-dihydroquinolin-5-yl)urea]	–	–	–	–
41	17	CCC1(CC)C[C@@H](NC(=O)Nc2cccc3c2ccc(=O)n3C)c2ccccc2O1 [Example 67, 1-[(4R)-2,2-diethyl-3,4-dihydro-2H-chromen-4-yl]-3-(1-methyl-2-oxo-1,2-dihydroquinolin-5-yl)urea]	–	–	–	–
8	28	CN1C(=O)NCc2c(NC(=O)N[C@@H]3CCc4cc(C(C)(C)C)ccc43)cccc21 [Example 141, 1-[(1R)-5-tert-butyl-2,3-dihydro-1H-inden-1-yl]-3-(1-methyl-2-oxo-1,2,3,4-tetrahydroquinazolin-5-yl)urea]	–	–	–	–
18	38	CC1(C)C[C@@H](NC(=O)Nc2ccc3c(c2)NC(=O)CC3)c2ccc(C(F)(F)F)nc2O1 [Example 247, 1-[(4R)-2,2-dimethyl-7-(trifluoromethyl)-3,4-dihydro-2H-pyrano[2,3-b]pyridin-4-yl]-3-(2-oxo-1,2,3,4-tetrahydroquinolin-7-yl)urea]	–	–	–	–
